Test results published in US20210391038A1, “SPECIFICALLY-SHAPED CRYSTAL OF COMPOUND AND METHOD FOR PRODUCING SAME” (TOWA PHARMACEUTICAL CO., LTD., priority 2018, published 2021).
Structures can show the parent of a compound that is named as a salt. Where two headings read alike, the source gives them in different places.

Columns and labels:
Format in all cases: physicochemical
[1] = Sphericity from SEM images (ImageJ); set-up: key: 1 = true sphere; closer to 1 = more spherical; mean of ≥5 particles
Text: In the present description, “spherulite” means a crystal aggregate (polycrystal) which has a radial or concentric thin layered structure and has a spherical outer shape. Whether the crystal obtained by the method of the present invention is a spherulite or not can be determined, for example, by observing the outer shape of the crystal using SEM. For example, it can be discriminated by cutting the crystal aggregate and observing the internal structure thereof using SEM. The sphericity of the spherulite obtained by the method of the present invention is usually 0.60 or more, preferably 0.70 or more, more preferably 0.80 or more, particularly preferably 0.90 or more, and most preferably 0.95 or more. The sphericity can be calculated by the following method.
When an image of particles taken by SEM is analyzed using image processing software ImageJ, a coordinate group representing the position of pixels forming the outline of a particle is obtained. The length of the coordinate group is defined as N, and one pixel coordinate of each outline is defined as p[i] (1≤i≤N). The angle between a straight line l(k) connecting two points p[k] and p[k+N/D] and a straight line m(k) connecting two points p[k+N/D] and p[k+2N/D] is defined as θ(k) (−180°<θ<180°) (1≤k≤N, 1≤D≤N). D corresponds to the number of partitions of the outline. When N/D is not a natural number, the value is defined as the quotient obtained by dividing N by D. By calculating this angle with k=1 to N, N pieces of θ value can be obtained.
When the particle is a true sphere, θ(k) is 360/D, and the closer the particle is to a true sphere, the closer θ(k) is to this value. The error between θ(k) and the true value 360/D is evaluated by the root-mean-square error (RMSE) of the following formula:
Using the RMSE value of when D is 10 (θ(k)=36°), the sphericity is defined by the following formula: […]
The sphericity is 1 in a true sphere, and the closer the particle is to a true sphere, the closer the sphericity is to 1. Meanwhile, the sphericity of an ellipse whose long axis is infinitely long is zero. The sphericity is measured for five or more particles to calculate the mean. This mean is defined as the sphericity of each sample (see FIGS. 42 and 43).

[2] = Particle size distribution (d50, sharpness index); set-up: key to sharpness index of the crystal thus obtained / sharpness index of the fine powders: calculated by formula from d10, d50, d90; 1.0 = most uniform particle size; details: for d50: samples of filtration test (Table 7)
Text: d10 in the present description is a value obtained from a particle size distribution analyzer, and represents a particle size of a particle corresponding to 10% of accumulation from the smaller particle side in the particle size distribution based on the volume.
d50 in the present description is a value obtained from a particle size distribution analyzer, and represents a particle size of a particle corresponding to 50% of accumulation from the smaller particle side in the particle size distribution based on the volume.
“Sharpness index” in the present description is an index representing the uniformity of a particle size of a particle in a powder, and a sharpness index of 1.0 represents a powder having the most uniform particle size. The closer the sharpness index is to 1.0, the more the particle size of the powder is uniform. Specifically, the sharpness index represents a value calculated using the following formula from the values of d10, d50, and d90 measured by a particle size distribution analyzer:
Images for measuring the number of particles were obtained by a scanner GT-X830 manufactured by SEIKO EPSON CORPORATION. The powder X-ray diffraction (XRD) was measured using a desktop X-ray diffraction device MiniFlex300 manufactured by Rigaku Corporation. […] The particle strength was measured using a particle hardness measuring device NEW GRANO manufactured by OKADA SEIKO CO., LTD. […] The purity of a compound was measured by a high performance liquid chromatograph (LC-20A) manufactured by Shimadzu Corporation.

[3] = Measurement of critical degree of supersaturation of spherulite
Text: “Supersaturated solution” in the present description means a solution in a state of containing a solute exceeding the solubility. As the degree of supersaturation, “degree of supersaturation” can be used. Regarding the degree of supersaturation, when the concentration (mass concentration (g/g)) of a compound dissolved in a supersaturated solution is defined as C and the solubility of the compound is defined as Cs, the degree of supersaturation S can be represented by the following formula: […]
“Critical degree of supersaturation” in the present description means the lowest degree of supersaturation required to obtain a specifically-shaped crystal. […] The value of a critical degree of supersaturation varies depending on the shape of a crystal. For example, all of values of a critical degree of supersaturation required to obtain a plate crystal, a critical degree of supersaturation required to obtain a needle crystal, and a critical degree of supersaturation required to obtain a spherulite are different. The critical degree of supersaturation required to obtain a spherulite is higher than the critical degree of supersaturation required to obtain a plate crystal or a needle crystal.
The actual measured value of the critical degree of supersaturation (S*) can be measured as follows:
(1) 100 particles are observed by SEM. (2) 5 to 10 particles whose shape is close to a desired specific shape are selected, and the shape is evaluated. In particular, when the desired specific shape is a sphere, the sphericity is evaluated. (3) Based on the evaluation index of the shape, whether the selected particles have the desired specific shape or not is determined. In particular, when the desired specific shape is a sphere, the case where the sphericity is 0.60 or more is determined as a spherulite. (4) The above-mentioned operation is performed for each sample having a different degree of supersaturation during crystallization, and the minimum value of a degree of supersaturation having the specifically-shaped particles is determined as the critical degree of supersaturation. The difference between the maximum value of a degree of supersaturation not having the specifically-shaped particles and the critical degree of supersaturation should be 20% or less.
The critical degree of supersaturation of a spherulite of ketotifen fumarate was determined as follows. To 2.0 g of ketotifen fumarate, 10 mL (5 v/w) of methanol was added, followed by reflux to completely dissolve. This solution was added dropwise to 50 mL of isopropanol at 20° C. to prepare a supersaturated solution of ketotifen fumarate. The degree of supersaturation of the supersaturated solution at the end of dropwise addition was 9.0. The supersaturated solution was crystallized. The crystal was collected by filtration, followed by drying under reduced pressure at 40° C., thus obtaining a crystal of ketotifen fumarate.
Similarly, when a substrate and a solvent different from those mentioned above are used, a plurality of samples having a different degree of supersaturation are prepared and crystallized, and then the critical degree of supersaturation of the spherulite was measured.

[4] = SEM image analysis, mean of particles
[5] = SEM image analysis, mean of particles, trihydrate
[6] = calculated from d10, d50, d90, trihydrate
[7] = dry particle size distribution, volume based, trihydrate
[8] = dry particle size distribution, volume based

## NC(CCC(=O)O)C(=O)O (racemic) [Example 14, DL-glutamic acid]
[1]; [4]
  sphericity of the spherulite: 0.95±0.03

## CN1CCC(=C2c3ccccc3CC(=O)c3sccc32)CC1 [Example 1, ketotifen fumarate]
[1]; [4]
  sphericity of the spherulite: 0.78±0.02

## COc1ccc2[n-]c([S@@+]([O-])Cc3ncc(C)c(OC)c3C)nc2c1.COc1ccc2[n-]c([S@@+]([O-])Cc3ncc(C)c(OC)c3C)nc2c1.O.O.O.[Mg+2] [Example 2, esomeprazole magnesium trihydrate]
[1]; [5]
  sphericity of the spherulite: 0.95±0.03
[2]; after centrifugal classification and sieving
  sharpness index of the fine powders: 1.3
[2]; after centrifugal classification and sieving (on 390 M, 38 μm)
  d50 of the fine powders: 54.6 μm
[2]; [6]
  sharpness index of the crystal thus obtained: 2.5
[2]; [7]
  d50 of the crystal thus obtained: 56.1 μm

## COc1ccc2[n-]c([S@@+]([O-])Cc3ncc(C)c(OC)c3C)nc2c1.COc1ccc2[n-]c([S@@+]([O-])Cc3ncc(C)c(OC)c3C)nc2c1.O.O.O.[Mg+2] [Example 7, esomeprazole magnesium trihydrate]
[1]; [5]
  sphericity of the spherulite: 0.97±0.01
[2]; [6]
  sharpness index of the crystal thus obtained: 1.40
[2]; [7]
  d50 of the crystal thus obtained: 189 μm

## COc1ccc2[n-]c([S@@+]([O-])Cc3ncc(C)c(OC)c3C)nc2c1.COc1ccc2[n-]c([S@@+]([O-])Cc3ncc(C)c(OC)c3C)nc2c1.O.O.O.[Mg+2] [Example 10(1), esomeprazole magnesium trihydrate]
[1]; [5]
  sphericity of the spherulite: 0.97±0.01
[2]; [6]
  sharpness index of the crystal thus obtained: 1.51
[2]; [7]
  d50 of the crystal thus obtained: 39.9 μm
[2]; trihydrate
  d50: 39.9 μm

## COc1ccc2[n-]c([S@@+]([O-])Cc3ncc(C)c(OC)c3C)nc2c1.COc1ccc2[n-]c([S@@+]([O-])Cc3ncc(C)c(OC)c3C)nc2c1.O.O.O.[Mg+2] [Example 10(2), esomeprazole magnesium trihydrate]
[1]; [5]
  sphericity of the spherulite: 0.80±0.05
[1]; non-spherulite crystals, trihydrate
  sphericity of the non-spherulite: 0.50±0.06
[2]; [6]
  sharpness index of the crystal thus obtained: 1.48
[2]; [7]
  d50 of the crystal thus obtained: 9.6 μm
[2]; trihydrate
  d50: 9.6 μm

## Cc1c(OCC(F)(F)F)ccnc1C[S+]([O-])c1nc2ccccc2[nH]1 (centres unmarked) [Example 11, lansoprazole]
[1]; [4]
  sphericity of the spherulite: 0.94±0.04

## CC[C@H]1OC(=O)[C@H](C)[C@@H](O[C@H]2C[C@@](C)(OC)[C@@H](O)[C@H](C)O2)[C@H](C)[C@@H](O[C@@H]2O[C@H](C)C[C@H](N(C)C)[C@H]2O)[C@](C)(O)C[C@@H](C)CN(C)[C@H](C)[C@@H](O)[C@]1(C)O [Example 12, azithromycin monohydrate]
[1]; [4]
  sphericity of the spherulite: 0.89±0.02
[2]; calculated from d10, d50, d90
  sharpness index of the crystal thus obtained: 1.5
[2]; [8]
  d50 of the crystal thus obtained: 75 μm

## CC[C@H]1OC(=O)[C@H](C)[C@@H](O[C@H]2C[C@@](C)(OC)[C@@H](O)[C@H](C)O2)[C@H](C)[C@@H](O[C@@H]2O[C@H](C)C[C@H](N(C)C)[C@H]2O)[C@](C)(OC)C[C@@H](C)C(=O)[C@H](C)[C@@H](O)[C@]1(C)O [Example 13, clarithromycin]
[1]; [4]
  sphericity of the spherulite: 0.87±0.08
[2]; calculated from d10, d50, d90
  sharpness index of the crystal thus obtained: 4.6
[2]; [8]
  d50 of the crystal thus obtained: 16 μm

## CNCC[C@H](Oc1cccc2ccccc12)c1cccs1 [Example 15, duloxetine hydrochloride]
[1]
  sphericity of the spherulite: 0.92±0.07
[2]
  d50 of the crystal thus obtained: 138 μm
  sharpness index of the crystal thus obtained: 4.7

## COC(=O)[C@H](c1ccccc1Cl)N1CCc2sccc2C1 [Example 16, clopidogrel sulfate]
[1]; [4]
  sphericity of the spherulite: 0.96±0.02
[2]; calculated from d10, d50, d90
  sharpness index of the crystal thus obtained: 1.7
[2]; [8]
  d50 of the crystal thus obtained: 133 μm

## O.O.O.O.O.O.O.O.O=C([O-])[O-].O=C([O-])[O-].O=C([O-])[O-].[La+3].[La+3] [Example 17, lanthanum carbonate octahydrate]
[1]
  sphericity of the spherulite: 0.69±0.08
[2]
  d50 of the crystal thus obtained: 105 μm
  sharpness index of the crystal thus obtained: 1.4

## CN(C)CCC[C@@]1(c2ccc(F)cc2)OCc2cc(C#N)ccc21 [Example 19, escitalopram oxalate]
[1]; [4]
  sphericity of the spherulite: 0.98±0.01
[2]; calculated from d10, d50, d90
  sharpness index of the crystal thus obtained: 4.87
[2]; [8]
  d50 of the crystal thus obtained: 50.7 μm

## N#C[C@@H]1CCCN1C(=O)CNC12CC3CC(CC(O)(C3)C1)C2 [Example 20, vildagliptin]
[1]; [4]
  sphericity of the spherulite: 0.99±0.01

## Cc1cc(N2CCN([C@@H]3CN[C@H](C(=O)N4CCSC4)C3)CC2)n(-c2ccccc2)n1 [Example 22, teneligliptin hydrobromide hydrate]
[1]; [4]
  sphericity of the spherulite: 0.93±0.04
[2]; calculated from d10, d50, d90
  sharpness index of the crystal thus obtained: 3.77
[2]; [8]
  d50 of the crystal thus obtained: 33.5 μm

## CC(C)[C@H](N)C(=O)OCCOCn1cnc2c(=O)[nH]c(N)nc21 [Valacyclovir hydrochloride]
[3]; entry 56, solvent 1 H2O, solvent 2 2-BuOH, solvent 2/solvent 1 ratio 35, crystallization 10 °C
  Critical degree of supersaturation S Experimental value: 48.6

## N#C[C@@H]1CCCN1C(=O)CNC12CC3CC(CC(O)(C3)C1)C2 [Vildagliptin]
[3]
  actual measured value of the critical degree of supersaturation: 9.2
[3]; entry 39, solvent 1 EtOH, solvent 2 TBME, solvent 2/solvent 1 ratio 10, crystallization 0 °C
  Critical degree of supersaturation S Experimental value: 9.2
[3]; entry 40, solvent 1 EtOH, solvent 2 TBME, solvent 2/solvent 1 ratio 10, crystallization 10 °C
  Critical degree of supersaturation S Experimental value: 7
[3]; entry 41, solvent 1 MEK, solvent 2 Toluene, solvent 2/solvent 1 ratio 10, crystallization 0 °C
  Critical degree of supersaturation S Experimental value: 8.5
[3]; entry 42, solvent 1 IPA, solvent 2 TBME, solvent 2/solvent 1 ratio 10, crystallization 0 °C
  Critical degree of supersaturation S Experimental value: 11
[3]; entry 43, solvent 1 IPA, solvent 2 TBME, solvent 2/solvent 1 ratio 10, crystallization 10 °C
  Critical degree of supersaturation S Experimental value: 11.6
[3]; entry 44, solvent 1 IPA, solvent 2 TBME, solvent 2/solvent 1 ratio 10, crystallization 20 °C
  Critical degree of supersaturation S Experimental value: 11.9
